Measurements published in ChEMBL document CHEMBL4834439, “New indenopyrazole linked oxadiazole conjugates as anti-pancreatic cancer agents: Design, synthesis, in silico studies including 3D-QSAR analysis” (Bioorg Med Chem Lett, 2021).

Tests used:
[1] = test system: PANC-1; assay: Antiproliferative activity against human PANC-1 cells assessed as reduction in cell viability after 48 hrs by MTT assay; assay type: functional, cell-based; details: PANC-1, 48 h
[2] = test system: MRC5; assay: Antiproliferative activity against human MRC5 cells assessed as reduction in cell viability after 48 hrs by MTT assay; assay type: cell-based; details: MRC5, 48 h
[3] = test system: MDA-MB-231; assay: Antiproliferative activity against human MDA-MB-231 cells assessed as reduction in cell viability after 48 hrs by MTT assay; assay type: functional, cell-based; details: MDA-MB-231, 48 h
[4] = test system: Caco-2; assay: Antiproliferative activity against human Caco-2 cells assessed as reduction in cell viability after 48 hrs by MTT assay; assay type: functional, cell-based; details: Caco-2, 48 h
[5] = test system: MCF7; assay: Antiproliferative activity against human MCF7 cells assessed as reduction in cell viability after 48 hrs by MTT assay; assay type: functional, cell-based; details: MCF7, 48 h
[6] = test system: PANC-1; assay: Induction of apoptosis in human PANC-1 cells assessed as viable cells at 10 uM incubated for 48 hrs by annexin V FITC and propidium iodide staining based flow cytometry analysis (reference value: 99.5%); assay type: functional; details: read-out: Activity
[7] = test system: PANC-1; assay: Induction of cell cycle arrest in human PANC-1 cells assessed as accumulation of cells at G2/M phase at 10 uM incubated for 48 hrs propidium iodide-A staining-based flow cytometric analysis (reference value: 6.71%); assay type: functional
[8] = test system: PANC-1; assay: Induction of cell cycle arrest in human PANC-1 cells assessed as accumulation of cells at S phase at 5 uM incubated for 48 hrs propidium iodide-A staining-based flow cytometric analysis (reference value: 44.71%); assay type: functional
[9] = test system: PANC-1; assay: Induction of cell cycle arrest in human PANC-1 cells assessed as accumulation of cells at G0/G1 phase at 5 uM incubated for 48 hrs propidium iodide-A staining-based flow cytometric analysis (reference value: 48.58%); assay type: functional
[10] = test system: PANC-1; assay: Induction of apoptosis in human PANC-1 cells assessed as necrotic cells at 5 uM incubated for 48 hrs by annexin V FITC and propidium iodide staining based flow cytometry analysis (reference value: 0%); assay type: functional
[11] = test system: PANC-1; assay: Induction of apoptosis in human PANC-1 cells assessed as viable cells at 5 uM incubated for 48 hrs by annexin V FITC and propidium iodide staining based flow cytometry analysis (reference value: 99.5%); assay type: functional; details: read-out: Activity
[12] = test system: PANC-1; assay: Induction of apoptosis in human PANC-1 cells assessed as necrotic cells at 10 uM incubated for 48 hrs by annexin V FITC and propidium iodide staining based flow cytometry analysis (reference value: 0%); assay type: functional
[13] = test system: PANC-1; assay: Induction of apoptosis in human PANC-1 cells assessed as increase in caspase 3 activity; assay type: functional, cell-based; details: dose 5-10 µM
[14] = test system: PANC-1; assay: Induction of apoptosis in human PANC-1 cells assessed as late apoptotic cells at 5 uM incubated for 48 hrs by annexin V FITC and propidium iodide staining based flow cytometry analysis (reference value: 0.1%); assay type: functional
[15] = test system: PANC-1; assay: Induction of apoptosis in human PANC-1 cells assessed as early apoptotic cells at 10 uM incubated for 48 hrs by annexin V FITC and propidium iodide staining based flow cytometry analysis (reference value: 0.2%); assay type: functional
[16] = test system: PANC-1; assay: Induction of apoptosis in human PANC-1 cells assessed as late apoptotic cells at 10 uM incubated for 48 hrs by annexin V FITC and propidium iodide staining based flow cytometry analysis (reference value: 0.1%); assay type: functional
[17] = test system: PANC-1; assay: Induction of cell cycle arrest in human PANC-1 cells assessed as accumulation of cells at G0/G1 phase at 10 uM incubated for 48 hrs propidium iodide-A staining-based flow cytometric analysis (reference value: 48.58%); assay type: functional
[18] = test system: PANC-1; assay: Induction of apoptosis in human PANC-1 cells assessed as increase in caspase 9 activity; assay type: functional, cell-based; details: dose 5-10 µM
[19] = test system: PANC-1; assay: Induction of apoptosis in human PANC-1 cells assessed as early apoptotic cells at 5 uM incubated for 48 hrs by annexin V FITC and propidium iodide staining based flow cytometry analysis (reference value: 0.2%); assay type: functional
[20] = test system: PANC-1; assay: Induction of cell cycle arrest in human PANC-1 cells assessed as accumulation of cells at S phase at 10 uM incubated for 48 hrs propidium iodide-A staining-based flow cytometric analysis (reference value: 44.71%); assay type: functional
[21] = test system: PANC-1; assay: Induction of cell cycle arrest in human PANC-1 cells assessed as accumulation of cells at G2/M phase at 5 uM incubated for 48 hrs propidium iodide-A staining-based flow cytometric analysis (reference value: 6.71%); assay type: functional

Row | SMILES | IC50 [1] | IC50 [2] | IC50 [3] | IC50 [4] | IC50 [5] | also measured
1 | Fc1ccc2c(c1)Cc1c-2n[nH]c1-c1nnc(/C=C/c2ccccc2)o1 | 21.5 µM | 66 µM | 18 µM | 15.9 µM | 60.4 µM | 
2 | Nc1ccn([C@@H]2O[C@H](CO)[C@@H](O)C2(F)F)c(=O)n1 [GEMCITABINE] | 4.2 µM | 80 µM | 8 µM | 9.4 µM | 6.1 µM | 
3 | COc1ccc(/C=C/c2nnc(-c3[nH]nc4c3Cc3ccccc3-4)o2)cc1OC | 36.4 µM | 63 µM | 26 µM | 22.8 µM | 56.2 µM | 
4 | COc1cc2c(cc1OC)-c1n[nH]c(-c3nnc(/C=C/c4cc(OC)c(OC)c(OC)c4)o3)c1C2 | 18.4 µM | 77 µM | 13.5 µM | 57.4 µM | 14.4 µM | 
5 | COc1ccc(/C=C/c2nnc(-c3[nH]nc4c3Cc3cc(F)ccc3-4)o2)cc1OC | 23 µM | 58 µM | 17.6 µM | 18.7 µM | 18.1 µM | 
6 | COc1cc(/C=C/c2nnc(-c3[nH]nc4c3Cc3cc(F)ccc3-4)o2)cc(OC)c1OC | 15.5 µM | 61 µM | 17.2 µM | 16.1 µM | 44.8 µM | 
7 | COc1ccc(/C=C/c2nnc(-c3[nH]nc4c3Cc3cc(F)ccc3-4)o2)cc1 | 39.9 µM | 52 µM | 37.2 µM | 15.6 µM | 63.8 µM | 
8 | COc1ccc2c(c1)Cc1c-2n[nH]c1-c1nnc(/C=C/c2ccc([N+](=O)[O-])cc2)o1 | 7.4 µM | 41 µM | 21.3 µM | 57.1 µM | 20.6 µM | viability at 10 µM [6]: 60.3%; Activity [7]: 7.35%; Activity [8]: 46.6%; Activity [9]: 36.55%; Activity [10]: 4.6%; viability at 5 µM [11]: 76.7%; Activity [12]: 7.5%; Activity [13]: Dose-Dependent Effect; Activity [14]: 16.5%; Activity [15]: 5.5%; Activity [16]: 27.2%; Activity [17]: 32.78%; Activity [18]: Dose-Dependent Effect; Activity [19]: 1.9%; Activity [20]: 59.87%; Activity [21]: 17.85%
9 | COc1ccc2c(c1)Cc1c-2n[nH]c1-c1nnc(/C=C/c2ccccc2)o1 | 26 µM | 65 µM | 12.8 µM | 13.1 µM | 67.6 µM | 
10 | COc1cc2c(cc1OC)-c1n[nH]c(-c3nnc(/C=C/c4ccc([N+](=O)[O-])cc4)o3)c1C2 | 4.3 µM | 49 µM | 16.3 µM | 20 µM | 20.2 µM | viability at 10 µM [6]: 52.2%; Activity [7]: 2%; Activity [8]: 53.38%; Activity [9]: 42.09%; Activity [10]: 1.2%; viability at 5 µM [11]: 64.1%; Activity [12]: 10.3%; Activity [13]: Dose-Dependent Effect; Activity [14]: 27.5%; Activity [15]: 2.5%; Activity [16]: 31.2%; Activity [17]: 24.94%; Activity [18]: Dose-Dependent Effect; Activity [20]: 73.06%; Activity [21]: 4.26%
11 | C(=C\c1nnc(-c2[nH]nc3c2Cc2ccccc2-3)o1)/c1ccccc1 | > 50 µM | 45 µM | 18.7 µM | 14.8 µM | 22.7 µM | 
12 | COc1ccc(/C=C/c2nnc(-c3[nH]nc4c3Cc3cc(OC)c(OC)cc3-4)o2)cc1OC | > 100 µM | 63 µM | 23.2 µM | 22.7 µM | 14.5 µM | 
13 | COc1cc2c(cc1OC)-c1n[nH]c(-c3nnc(/C=C/c4ccccc4)o3)c1C2 | 30.9 µM | 65 µM | 11.5 µM | 15 µM | 32.9 µM | 
14 | O=[N+]([O-])c1ccc(/C=C/c2nnc(-c3[nH]nc4c3Cc3ccccc3-4)o2)cc1 | 18.3 µM | 66 µM | 18.5 µM | 17.7 µM | 41.9 µM | 
15 | COc1ccc(/C=C/c2nnc(-c3[nH]nc4c3Cc3ccccc3-4)o2)cc1 | 20.6 µM | 38 µM | 13.5 µM | 39.7 µM | 17.1 µM | 
16 | COc1ccc(/C=C/c2nnc(-c3[nH]nc4c3Cc3cc(OC)c(OC)cc3-4)o2)cc1 | 27.3 µM | 89 µM | 25 µM | 14.9 µM | 10.1 µM | 
17 | O=[N+]([O-])c1ccc(/C=C/c2nnc(-c3[nH]nc4c3Cc3cc(F)ccc3-4)o2)cc1 | 16.8 µM | 89 µM | 21.9 µM | > 100 µM |  | 
18 | COc1ccc(/C=C/c2nnc(-c3[nH]nc4c3Cc3cc(OC)ccc3-4)o2)cc1 | 17.4 µM | 54 µM | 16.6 µM | 10.6 µM | 60.2 µM | 
19 | COc1cc(/C=C/c2nnc(-c3[nH]nc4c3Cc3ccccc3-4)o2)cc(OC)c1OC | 24.2 µM | 55 µM | 18.4 µM | 31.7 µM | 37.2 µM | 
